The record followed here is patent US8993765B2, “Tetrahydro-azacarboline MCH-1 antagonists, methods of making, and uses thereof” (Albany Molecular Research, Inc., priority 2010, dated 2015).

Structures can show the parent of a compound that is named as a salt.

human MCH-1 receptor, sequence (Q99705 whole entry): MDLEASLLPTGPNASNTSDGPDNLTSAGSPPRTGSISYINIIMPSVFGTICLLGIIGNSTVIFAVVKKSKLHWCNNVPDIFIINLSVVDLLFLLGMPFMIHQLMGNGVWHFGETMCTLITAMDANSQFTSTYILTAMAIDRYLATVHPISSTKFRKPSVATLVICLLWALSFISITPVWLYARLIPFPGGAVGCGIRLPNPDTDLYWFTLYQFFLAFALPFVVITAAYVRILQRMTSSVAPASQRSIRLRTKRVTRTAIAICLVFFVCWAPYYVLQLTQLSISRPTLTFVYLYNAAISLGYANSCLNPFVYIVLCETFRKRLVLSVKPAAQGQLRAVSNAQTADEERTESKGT

One series has as its target human MCH-1 receptor (Homo sapiens (Human), UniProt Q99705). Kind of series: Binding Assay for Human Melanin-Concentrating Hormone (MCH-1) Receptor. To be noted: @ 1 uM test compound; membranes of CHO-K1 cells expressing human MCH-1 receptor; read-out: MCH1 percent inhibition of control radioligand specific binding. Here is the method: Binding Assay for Human Melanin-Concentrating Hormone (MCH-1) Receptor
Evaluation of the affinity of compounds for the human MCH-1 receptor was accomplished using 4-(3,4,5-tritritiumbenzyloxy)-1-(1-(2-(pyrrolidin-1-yl)ethyl)-1H-indazol-5-yl)pyridin-2(1H)-one and membranes prepared from stable CHO-K1 cells expressing the human MCH-1 receptor obtained from Euroscreen (Batch 1138). Cell membrane homogenates (8.92 μg protein) were incubated for 60 min at 25° C. with […] of the [^3H]-labeled compound in the absence or presence of the test compound in 50 mM Tris-HCl buffer, pH 7.4. Nonspecific binding was determined in the presence of 50 μM 1-(5-(4-cyanophenyl)bicyclo[3.1.0]hexan-2-yl)-3-(4-fluoro-3-(trifluoromethyl)phenyl)-1-(3-(4-methylpiperazin-1-yl)propyl)urea. Following incubation, the samples were filtered rapidly under vacuum through Skatron 11731 filters, pre-soaked in 0.5% polyethylenimine, and washed with ice-cold 50 mM Tris-HCl buffer, pH 7.4, (wash setting 9,9,0) using a Skatron cell harvester. The filters were counted for radioactivity in a liquid scintillation counter (Tri-Carb 2100TR, Packard) using a scintillation cocktail (Ultima Gold MV, Perkin Elmer).
The results are expressed as a percent inhibition of the control radioligand specific binding. The IC50 value (concentration causing a half-maximal inhibition of control specific binding) and Hill coefficient (nH) were determined by non-linear regression analysis of the competition curve using Hill equation curve fitting. The inhibition constant (Ki) was calculated from the Cheng Prusoff equation: (Ki=IC50/(1+(L/KD)), where L=concentration of radioligand in the assay, and KD=affinity of the radioligand for the receptor.
What is called inhibition is how much of the control response was suppressed. As for `O=c1cc(-c2ccc(C(F)(F)F)cc2)ccn1-c1ccc2c(c1)nc1n2CCNC1` [Example 20, 1-(1,2,3,4-Tetrahydropyrazino[1,2-a]benzimidazol-8-yl)-4-(4-(trifluoromethyl)phenyl)pyridin-2(1H)-one hydrochloride], the inhibition at 1 µM came to 61%.

The same series, now with this note: radioligand displacement, membranes of CHO-K1 cells expressing human MCH-1 receptor; Ki by Cheng Prusoff equation; hydrochloride; read-out: MCH1 Ki.
As usually defined, the Ki is the equilibrium dissociation constant of an inhibitor or competing ligand from its target. For the molecule `CC1Cc2c(c3ccc(-n4ccc(OCc5ccccc5)cc4=O)nc3n2C)CN1` (single isomer, unassigned; (-)) [Example 17, (−)-4-(Benzyloxy)-1-(7,9-dimethyl-5,7,8,9-tetrahydro-6H-pyrido[3′,4′:4,5]pyrrolo[2,3-b]pyridin-2-yl)pyridin-2(1H)-one hydrochloride], the inhibitory constant (Ki) came out at 9.1 nM.

Staying with this series, now noted: radioligand displacement, membranes of CHO-K1 cells expressing human MCH-1 receptor; Ki by Cheng Prusoff equation; read-out: MCH1 Ki.
For `Cl.Cn1c2c(c3ccc(-n4ccc(OCc5ccc(F)cc5F)cc4=O)nc31)CNCC2` [Example 16, 4-((2,4-Difluorophenyl)methoxy)-1-(9-methyl-5,7,8,9-tetrahydro-6H-pyrido[3′,4′:4,5]pyrrolo[2,3-b]pyridin-2-yl)pyridin-2(1H)-one hydrochloride], the Ki turned out to be 8.3 nM. On the same count and under the same terms, then `Cn1c2c(c3ccc(-n4ccc(OCc5ccccc5)cc4=O)nc31)CNCC2` [Example 2, 4-(Benzyloxy)-1-(9-methyl-5,7,8,9-tetrahydro-6H-pyrido[3′,4′:4,5]pyrrolo[2,3-b]pyridin-2-yl)pyridin-2(1H)-one dihydrochloride], with 7.1 nM; and `Cl.Cn1c2c(c3ccc(-n4ccc(-c5ccc(C(F)(F)F)cc5)cc4=O)nc31)CNCC2` [Example 10, 1-(9-Methyl-5,7,8,9-tetrahydro-6H-pyrido[3′,4′:4,5]pyrrolo[2,3-b]pyridin-2-yl)-4-(4-(trifluoromethyl)phenyl)pyridin-2(1H)-one hydrochloride], with 4.7 nM. As to `Cl.O=c1cc(OCc2ccccc2)ccn1-c1ccn2c3c(nc2c1)CCNC3` [Example 22, 4-(Benzyloxy)-1-(1,2,3,4-tetrahydropyrido[4′,3′:4,5]imidazo[1,2-a]pyridin-7-yl)pyridin-2(1H)-one hydrochloride], the Ki amounted to 21 nM. Regarding `Cn1c2c(c3ccc(-n4ccc(-c5ccc(C(F)(F)F)nn5)cc4=O)nc31)CNCC2` [Example 5, 1-(9-Methyl-5,7,8,9-tetrahydro-6H-pyrido[3′,4′:4,5]pyrrolo[2,3-b]pyridin-2-yl)-4-(6-(trifluoromethyl)pyridazin-3-yl)pyridin-2(1H)-one hydrochloride], the Ki was 105 nM. For the molecule `Cn1c2c(c3ccc(-n4ccc(-c5ccc(C(F)(F)F)cn5)cc4=O)nc31)CNCC2` [Example 8, 1-(9-Methyl-5,7,8,9-tetrahydro-6H-pyrido[3′,4′:4,5]pyrrolo[2,3-b]pyridin-2-yl)-4-(5-(trifluoromethyl)pyridin-2-yl)pyridin-2(1H)-one hydrochloride], the Ki turned out to be 33 nM.

Take `CC1Cc2c(c3ccc(-n4ccc(OCc5ccc(F)cn5)cc4=O)nc3n2C)CN1.Cl` (centres unmarked) [Example 14, 1-(7,9-Dimethyl-5,7,8,9-tetrahydro-6H-pyrido[3′,4′:4,5]pyrrolo[2,3-b]pyridin-2-yl)-4-((5-fluoropyridin-2-yl)methoxy)pyridin-2(1H)-one hydrochloride]: the Ki is 25 nM. As to `Cn1c2c(c3ccc(N4CCN(CCc5ccccc5)CC4=O)nc31)CNCC2` [Example 3, 1-(9-Methyl-5,7,8,9-tetrahydro-6H-pyrido[3′,4′:4,5]pyrrolo[2,3-b]pyridin-2-yl)-4-phenethylpiperazin-2-one dihydrochloride], the Ki came out at 47 nM. With `Cn1c2c(c3ccc(-n4ccc(OCc5ccc(C(F)(F)F)nc5)cc4=O)nc31)CNCC2` [Example 7, 1-(9-Methyl-5,7,8,9-tetrahydro-6H-pyrido[3′,4′:4,5]pyrrolo[2,3-b]pyridin-2-yl)-4-((6-(trifluoromethyl)pyridin-3-yl)methoxy)pyridin-2(1H)-one hydrochloride], the Ki amounted to 71 nM. As to `Cn1c2c(c3ccc(-n4ccc(OCc5ccc(F)cn5)cc4=O)nc31)CNCC2` [Example 4, 4-((5-Fluoropyridin-2-yl)methoxy)-1-(9-methyl-5,7,8,9-tetrahydro-6H-pyrido[3′,4′:4,5]pyrrolo[2,3-b]pyridin-2-yl)pyridin-2(1H)-one hydrochloride], the Ki is 15 nM. In the case of `O=c1cc(-c2ccc(C(F)(F)F)nc2)ccn1-c1ccn2c3c(nc2c1)CCNC3` [Example 24, 1-(1,2,3,4-Tetrahydropyrido[4′,3′:4,5]imidazo[1,2-a]pyridin-7-yl)-4-(6-(trifluoromethyl)pyridin-3-yl)pyridin-2(1H)-one hydrochloride], the Ki stood at 616 nM.

Consider `Cn1c2c(c3ccc(-n4ccc(-c5ccc(C(F)(F)F)nc5)cc4=O)nc31)CNCC2` [Example 6, 1-(9-Methyl-5,7,8,9-tetrahydro-6H-pyrido[3′,4′:4,5]pyrrolo[2,3-b]pyridin-2-yl)-4-(6-(trifluoromethyl)pyridin-3-yl)pyridin-2(1H)-one hydrochloride], for which the Ki came out at 15 nM.

As to `CC(C)N1CCc2nc3cc(-n4ccc(OCc5ccccc5)cc4=O)ccn3c2C1` [Example 27, 4-(Benzyloxy)-1-(2-(propan-2-yl)-1,2,3,4-tetrahydropyrido[4′,3′:4,5]imidazo[1,2-a]pyridin-7-yl)pyridin-2(1H)-one hydrochloride], the inhibition constant Ki is 19 nM.

On to `O=c1cc(OCc2ccccc2)ccn1-c1ccc2c(c1)nc1n2CCNC1` [Example 18, 4-(Benzyloxy)-1-(1,2,3,4-tetrahydropyrazino[1,2-a]benzimidazol-8-yl)pyridin-2(1H)-one hydrochloride], for which the Ki was determined as 62 nM. As to `Cn1c2c(c3ccc(-n4ccc(OCc5ccc(Cl)cc5Cl)cc4=O)nc31)CNCC2` [Example 15, 4-((2,4-Dichlorophenyl)methoxy)-1-(9-methyl-5,7,8,9-tetrahydro-6H-pyrido[3′,4′:4,5]pyrrolo[2,3-b]pyridin-2-yl)pyridin-2(1H)-one hydrochloride], the Ki came out at 17 nM. As for `O=c1cc(-c2ccc(C(F)(F)F)cc2)ccn1-c1ccn2c3c(nc2c1)CCNC3` [Example 26, 1-(1,2,3,4-Tetrahydropyrido[4′,3′:4,5]imidazo[1,2-a]pyridin-7-yl)-4-(4-(trifluoromethyl)phenyl)pyridin-2(1H)-one hydrochloride], the Ki was found to be 23 nM. Regarding `Cn1c2c(c3ccc(-n4ccc(OCc5ccccc5)cc4=O)nc31)C(=O)NCC2` [Example 28, 4-(Benzyloxy)-1-(9-methyl-5-oxo-5,7,8,9-tetrahydro-6H-pyrido[3′,4′:4,5]pyrrolo[2,3-b]pyridin-2-yl)pyridin-2(1H)-one], the Ki was 103 nM. For the molecule `CC(C)N1CCn2c(nc3cc(-n4ccc(OCc5ccccc5)cc4=O)ccc32)C1` [Example 21, 4-(Benzyloxy)-1-(2-(propan-2-yl)-1,2,3,4-tetrahydropyrazino[1,2-a]benzimidazol-8-yl)pyridin-2(1H)-one hydrochloride], the Ki turned out to be 94 nM. For `CC(=O)N1Cc2c(n(C)c3nc(-n4ccc(OCc5ccccc5)cc4=O)ccc23)CC1C` (single isomer, unassigned; enantiomer a) [Example 29, 1-(6-Acetyl-7,9-dimethyl-5,7,8,9-tetrahydro-6H-pyrido[3′,4′:4,5]pyrrolo[2,3-b]pyridin-2-yl)-4-(benzyloxy)pyridin-2(1H)-one (Enantiomer A)], the inhibitory constant (Ki) was 81 nM. On to `O=c1cc(OCc2ccc(F)cn2)ccn1-c1ccn2c3c(nc2c1)CCNC3` [Example 23, 4-((5-Fluoropyridin-2-yl)methoxy)-1-(1,2,3,4-tetrahydropyrido[4′,3′:4,5]imidazo[1,2-a]pyridin-7-yl)pyridin-2(1H)-one hydrochloride], for which the Ki was 30 nM. Consider `O=c1cc(OCc2ccc(C(F)(F)F)nc2)ccn1-c1ccn2c3c(nc2c1)CCNC3` [Example 25, 1-(1,2,3,4-Tetrahydropyrido[4′,3′:4,5]imidazo[1,2-a]pyridin-7-yl)-4-((6-(trifluoromethyl)pyridin-3-yl)methoxy)pyridin-2(1H)-one hydrochloride], for which the inhibitory constant (Ki) amounted to 3320 nM.

Test system in a further series: not given
Assay: not given
Details: not given
As a reminder, the melting point is the temperature of the solid-liquid transition. As to `Cl.Cn1c2c(c3ccc(-n4ccc(OCc5ccc(F)cc5F)cc4=O)nc31)CNCC2` [Example 16, 4-((2,4-Difluorophenyl)methoxy)-1-(9-methyl-5,7,8,9-tetrahydro-6H-pyrido[3′,4′:4,5]pyrrolo[2,3-b]pyridin-2-yl)pyridin-2(1H)-one hydrochloride], the melting point was in the range of 206 to 210 °C.

With `Cl.Cn1c2c(c3ccc(-n4ccc(-c5ccc(C(F)(F)F)cc5)cc4=O)nc31)CNCC2` [Example 10, 1-(9-Methyl-5,7,8,9-tetrahydro-6H-pyrido[3′,4′:4,5]pyrrolo[2,3-b]pyridin-2-yl)-4-(4-(trifluoromethyl)phenyl)pyridin-2(1H)-one hydrochloride], the melting point was 278 to 281 °C (dec.). Take `Cl.O=c1cc(OCc2ccccc2)ccn1-c1ccn2c3c(nc2c1)CCNC3` [Example 22, 4-(Benzyloxy)-1-(1,2,3,4-tetrahydropyrido[4′,3′:4,5]imidazo[1,2-a]pyridin-7-yl)pyridin-2(1H)-one hydrochloride]: the melting point is 280 °C (dec.). Consider `CC1Cc2c(c3ccc(-n4ccc(OCc5ccc(F)cn5)cc4=O)nc3n2C)CN1.Cl` (centres unmarked) [Example 14, 1-(7,9-Dimethyl-5,7,8,9-tetrahydro-6H-pyrido[3′,4′:4,5]pyrrolo[2,3-b]pyridin-2-yl)-4-((5-fluoropyridin-2-yl)methoxy)pyridin-2(1H)-one hydrochloride], for which the melting point fell in the range of 288 to 292 °C. On the same count and under the same terms, then `O=c1cc(-c2ccc(C(F)(F)F)nc2)ccn1-c1ccn2c3c(nc2c1)CCNC3` (as salt: hydrochloride) [Example 24, 1-(1,2,3,4-Tetrahydropyrido[4′,3′:4,5]imidazo[1,2-a]pyridin-7-yl)-4-(6-(trifluoromethyl)pyridin-3-yl)pyridin-2(1H)-one hydrochloride], with 265 °C (dec.); and `O=c1cc(OCc2ccc(C(F)(F)F)nc2)ccn1-c1ccn2c3c(nc2c1)CCNC3` (as salt: hydrochloride) [Example 25, 1-(1,2,3,4-Tetrahydropyrido[4′,3′:4,5]imidazo[1,2-a]pyridin-7-yl)-4-((6-(trifluoromethyl)pyridin-3-yl)methoxy)pyridin-2(1H)-one hydrochloride], with 265 °C (dec.).
